Assay results as given in article PMC10814857, “Functional Classification and Interaction Selectivity Landscape of the Human SH3 Domain Superfamily” (Cells, 2024).
Peptide text beside a SMILES is read from it.

Columns and labels:
Test in all cases: Fluorescence polarization SH3 domain-PRP binding
Conditions in all cases: FP, 0.2 µM fluorescein-labeled peptide, SH3 domain 0-200 µM, Tris/HCl pH 7.5, 25 °C, quadratic fit
[1] = biological target: T1, ABI1 SH3 domain (aa 446-505) (Homo sapiens, UniProt Q8IZP0)
T1 construct: 446-505; GST (N); made in house; host or cells: Escherichia coli CodonPlus, Rosetta, BL21(DE3)
T1 sequence (Q8IZP0 446-505): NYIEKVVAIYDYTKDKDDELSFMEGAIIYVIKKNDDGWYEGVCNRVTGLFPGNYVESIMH
Procedure: (§1) The interaction between fluorescein-labeled proline-rich peptides (0.2 µM) and increasing concentrations of SH3 domains (ranging from 0 to 200 µM) was measured in a buffer (containing 30 mM Tris/HCl (pH 7.5), 5 mM MgCl2, and 3 mM DTT at 25 °C) in a total volume of 200 µL using a Fluoromax 4 fluorimeter in polarization mode and a quartz glass fluorescence cuvette (Hellma Ultra-Micro Cuvette 105.250-QS, Thermo Fisher Scientific, Waltham, MA USA). Excitation was performed at 470 nm and emission was measured at 560 nm. Dissociation constants (Kd) were determined by fitting the concentration-dependent binding curve to a quadratic ligand binding equation.
(§2) Fluorescence polarization measurements were performed to determine the binding affinities of SH3 domain–PRP interaction pairs from the dot blot analysis. SH3 proteins were titrated at increasing concentrations against fluorescent PRPs, which were kept at a constant concentration of 0.2 µM. GRB2-2^W193K, which is defective in the binding of PRPs such as RP1, was used as a negative control as previously described. […] The resulting data (Figure S6) allowed the evaluation of equilibrium dissociation constants (Kd) for 45 interactions between the SH3 domains and the PRPs (Figure 2B; Table S6).
(§3) Figure S6. Interactions of the SH3 domains with fluorescent PRPs measured by fluorescence polarization.
(§4) Fluorescent peptides (0.2 µM) were titrated with increasing concentrations of the corresponding SH3 domains.
(§5) GRB2-2W193K, defective in the binding of PRPs such as RP1, was used as a negative control as previously described. The x-axis represents SH3 domain concentrations as GST fusion proteins in µM, while the y-axis represents fluorescence polarization. The equilibrium dissociation constants (Kd) for the respective measurements were determined by fitting the titration curves to a quadratic ligand-binding equation (solid lines). All Kd values are […]
(§6) Error bars are derived from the fitting errors.
(§7) (1 picture or pasted object on this page, not shown here)

[2] = biological target: T2, ABL2 SH3 domain (aa 107-167) (Homo sapiens, UniProt P42684)
T2 construct: 107-167; GST (N); made in house; host or cells: Escherichia coli CodonPlus, Rosetta, BL21(DE3)
T2 sequence (P42684 107-167): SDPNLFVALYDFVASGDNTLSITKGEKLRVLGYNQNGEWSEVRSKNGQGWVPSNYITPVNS
Procedure: as §1, §2, §3, §4, §5, §6, §7

[3] = biological target: T3, ARHGAP12 SH3 domain (aa 12-74) (Homo sapiens, UniProt Q8IWW6)
T3 construct: 12-74; GST (N); made in house; host or cells: Escherichia coli CodonPlus, Rosetta, BL21(DE3)
T3 sequence (Q8IWW6 12-74): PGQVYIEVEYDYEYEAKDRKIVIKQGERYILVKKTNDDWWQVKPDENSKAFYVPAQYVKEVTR
Procedure: as §1, §2, §3, §4, §5, §6, §7

[4] = biological target: T4, ARHGEF30 (OBSCN) SH3 domain (aa 5600-5667) (Homo sapiens, UniProt Q5VST9)
T4 construct: 5600-5667; GST (N); made in house; host or cells: Escherichia coli CodonPlus, Rosetta, BL21(DE3)
T4 sequence (Q5VST9 5600-5667): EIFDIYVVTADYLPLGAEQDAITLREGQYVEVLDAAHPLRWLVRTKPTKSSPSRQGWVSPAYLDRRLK
Procedure: as §1, §2, §3, §4, §5, §6, §7

[5] = biological target: T5, BIN1 SH3 domain (aa 520-593) (Homo sapiens, UniProt O00499)
T5 construct: 520-593; GST (N); made in house; host or cells: Escherichia coli CodonPlus, Rosetta, BL21(DE3)
T5 sequence (O00499 520-593): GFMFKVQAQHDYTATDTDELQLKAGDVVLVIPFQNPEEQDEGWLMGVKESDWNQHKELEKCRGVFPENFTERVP
Procedure: as §1, §2, §3, §4, §5, §6, §7

[6] = biological target: T6, CRK-1 SH3 domain (aa 132-192) (Homo sapiens, UniProt P46108)
T6 construct: 132-192; GST (N); made in house; host or cells: Escherichia coli CodonPlus, Rosetta, BL21(DE3)
T6 sequence (P46108 132-192): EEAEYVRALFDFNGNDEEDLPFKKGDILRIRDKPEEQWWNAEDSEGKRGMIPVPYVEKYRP
Procedure: as §1, §2, §3, §4, §5, §6, §7

[7] = biological target: T7, DLG2 SH3 domain (aa 536-606) (Homo sapiens, UniProt Q15700)
T7 construct: 536-606; GST (N); made in house; host or cells: Escherichia coli CodonPlus, Rosetta, BL21(DE3)
T7 sequence (Q15700 536-606): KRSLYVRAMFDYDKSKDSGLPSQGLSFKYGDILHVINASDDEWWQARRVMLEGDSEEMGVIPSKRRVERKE
Procedure: as §1, §2, §3, §4, §5, §6, §7

[8] = biological target: T8, GRB2-1 SH3 domain (aa 1-58) (Homo sapiens, UniProt P62993)
T8 construct: 1-58; GST (N); made in house; host or cells: Escherichia coli CodonPlus, Rosetta, BL21(DE3)
T8 sequence (P62993 1-58): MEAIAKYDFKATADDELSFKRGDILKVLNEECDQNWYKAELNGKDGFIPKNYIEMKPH
Procedure: as §1, §2, §3, §4, §5, §6, §7

[9] = biological target: T9, GRB2-2 SH3 domain (aa 158-215) (Homo sapiens, UniProt P62993)
T9 construct: 158-215; GST (N); made in house; host or cells: Escherichia coli CodonPlus, Rosetta, BL21(DE3)
T9 sequence (P62993 158-215): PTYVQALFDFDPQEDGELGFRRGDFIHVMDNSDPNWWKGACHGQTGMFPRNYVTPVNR
Procedure: as §1, §2, §3, §4, §5, §6, §7

[10] = biological target: T10, ITSN1-1 SH3 domain (aa 740-806) (Homo sapiens, UniProt Q15811)
T10 construct: 740-806; GST (N); made in house; host or cells: Escherichia coli CodonPlus, Rosetta, BL21(DE3)
T10 sequence (Q15811 740-806): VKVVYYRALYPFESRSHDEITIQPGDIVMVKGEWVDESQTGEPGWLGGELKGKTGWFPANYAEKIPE
Procedure: as §1, §2, §3, §4, §5, §6, §7

[11] = biological target: T11, ITSN1-2 SH3 domain (aa 913-971) (Homo sapiens, UniProt Q15811)
T11 construct: 913-971; GST (N); made in house; host or cells: Escherichia coli CodonPlus, Rosetta, BL21(DE3)
T11 sequence (Q15811 913-971): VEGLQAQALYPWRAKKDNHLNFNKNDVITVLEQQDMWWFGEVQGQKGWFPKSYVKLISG
Procedure: as §1, §2, §3, §4, §5, §6, §7

[12] = biological target: T12, ITSN1-3 SH3 domain (aa 1002-1060) (Homo sapiens, UniProt Q15811)
T12 construct: 1002-1060; GST (N); made in house; host or cells: Escherichia coli CodonPlus, Rosetta, BL21(DE3)
T12 sequence (Q15811 1002-1060): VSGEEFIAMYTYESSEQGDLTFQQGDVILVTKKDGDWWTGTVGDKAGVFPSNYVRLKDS
Procedure: as §1, §2, §3, §4, §5, §6, §7

[13] = biological target: T13, SNX9 SH3 domain (aa 1-62) (Homo sapiens, UniProt Q9Y5X1)
T13 construct: 1-62; GST (N); made in house; host or cells: Escherichia coli CodonPlus, Rosetta, BL21(DE3)
T13 sequence (Q9Y5X1 1-62): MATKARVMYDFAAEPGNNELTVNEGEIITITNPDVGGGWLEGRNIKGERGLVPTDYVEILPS
How it was run: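 FP titration: 0.2 µM fluorescent PRP + GST-SH3 0–200 µM; 30 mM Tris/HCl pH 7.5, 5 mM MgCl2, 3 mM DTT, 25 °C. Ex 470/em 560 nm. Kd by quadratic binding-equation fit; errors from fitting.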

CC[C@H](C)[C@H](NC(=O)[C@H](CCCCN)NC(=O)[C@H](CO)NC(=O)[C@@H]1CCCN1C(=O)[C@H](CO)NC(=O)[C@H](CO)NC(=O)[C@H](CCC(=O)O)NC(=O)[C@H](C)NC(=O)[C@@H]1CCCN1C(=O)[C@H](C)NC(=O)[C@H](CO)NC(=O)[C@H](CCC(=O)O)NC(=O)[C@@H]1CCCN1C(=O)[C@H](CCCNC(=N)N)NC(=O)[C@H](CCCNC(=N)N)NC(=O)[C@H](CCCNC(=N)N)NC(=O)[C@@H]1CCCN1C(=O)[C@@H]1CCCN1C(=O)[C@@H](NC(=O)[C@@H]1CCCN1C(=O)[C@@H]1CCCN1C(=O)[C@@H]1CCCN1C(=O)[C@@H](NC(=O)[C@@H]1CCCN1C(=O)[C@@H](NC(=O)[C@@H](N)CCC(=O)O)C(C)C)C(C)C)C(C)C)C(=O)O [Peptide P3] (H-EVPVPPPVPPRRRPESAPAESSPSKI-OH)
Kd [1]: > 200 µM | Kd [2]: > 200 µM | Kd [3]: 13.8 µM | Kd [4]: > 200 µM | Kd [5]: > 200 µM | Kd [6]: 12.9 µM | Kd [7]: > 200 µM | Kd [8]: 15 µM | Kd [9]: 12 µM | Kd [10]: > 200 µM | Kd [11]: > 200 µM | Kd [12]: > 200 µM | Kd [13]: > 200 µM
